Measured values reported in US20190135793A1, “HETEROCYCLIC INHIBITORS OF KDM5 FOR THE TREATMENT OF DISEASE” (Board of Regents, The University of Texas System, priority 2017, published 2019).
Like-named read-outs stand apart in the source and are kept apart here.

Assays:
KDM5B = molecular target: T1, KDM5B (Homo sapiens, UniProt Q9UGL1); test: biochemical
T1 construct: Full length of KDM5B and KDM4C protein were purchased from Active Motif; purchased Active Motif 31832
Method in brief: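 KDM5B (0.5 nM final) was preincubated with compound for 15 min at room temperature, then reacted with biotinylated peptide (3 nM final) for 25 min at room temperature.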

KDM4C = molecular target: T2, KDM4C (Homo sapiens, UniProt Q9H3R0); test: KDM4C AlphaScreen assay; format: biochemical; conditions: AlphaScreen; full length KDM4C 0.2 nM; biotinylated H3K9Me3 peptide 3 nM; 30 minutes at room temperature
T2 construct: Full length of KDM5B and KDM4C protein were purchased from Active Motif; purchased Active Motif 31858
T2 sequence (Q9H3R0 1-1056): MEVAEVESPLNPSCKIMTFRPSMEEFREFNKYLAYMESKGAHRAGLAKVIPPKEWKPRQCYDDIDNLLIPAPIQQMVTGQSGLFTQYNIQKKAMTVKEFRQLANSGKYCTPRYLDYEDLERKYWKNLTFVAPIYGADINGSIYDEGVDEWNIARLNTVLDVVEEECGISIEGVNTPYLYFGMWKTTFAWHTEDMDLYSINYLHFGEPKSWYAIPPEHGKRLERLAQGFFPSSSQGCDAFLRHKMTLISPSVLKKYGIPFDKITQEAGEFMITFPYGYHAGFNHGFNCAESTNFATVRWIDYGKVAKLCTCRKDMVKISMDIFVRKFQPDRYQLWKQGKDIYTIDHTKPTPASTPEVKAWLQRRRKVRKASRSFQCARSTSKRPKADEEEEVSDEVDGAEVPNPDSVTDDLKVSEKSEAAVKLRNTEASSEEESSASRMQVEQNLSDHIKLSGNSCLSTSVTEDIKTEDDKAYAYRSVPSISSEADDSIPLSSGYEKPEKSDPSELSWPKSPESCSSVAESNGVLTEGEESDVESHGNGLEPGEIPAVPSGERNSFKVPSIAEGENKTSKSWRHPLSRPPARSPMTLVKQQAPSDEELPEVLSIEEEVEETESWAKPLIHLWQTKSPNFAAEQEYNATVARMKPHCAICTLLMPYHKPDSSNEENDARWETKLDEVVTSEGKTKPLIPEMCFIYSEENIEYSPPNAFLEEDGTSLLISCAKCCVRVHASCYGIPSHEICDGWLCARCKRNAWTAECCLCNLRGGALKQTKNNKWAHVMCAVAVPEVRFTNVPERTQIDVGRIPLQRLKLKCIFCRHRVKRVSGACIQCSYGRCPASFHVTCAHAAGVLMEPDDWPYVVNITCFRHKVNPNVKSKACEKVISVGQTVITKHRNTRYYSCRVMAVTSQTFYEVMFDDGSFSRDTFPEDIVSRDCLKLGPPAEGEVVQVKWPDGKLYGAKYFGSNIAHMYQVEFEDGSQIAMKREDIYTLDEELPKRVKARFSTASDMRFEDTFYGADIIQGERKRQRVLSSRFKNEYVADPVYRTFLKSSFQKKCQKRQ
Method in brief: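 Full-length KDM4C (0.2 nM final) was preincubated 15 min at RT with compound in HEPES pH 7.4 with Tween-20, BSA and TCEP. The reaction ran 30 min at RT after adding biotinylated peptide (3 nM final) in buffer with Fe(II), α-ketoglutarate and ascorbate. EDTA-containing AlphaScreen beads stopped it; IC50 was curve-fitted.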

[1] = AlphaScreen, full length KDM5B 0.5 nM, biotinylated H3K4Me3 peptide 3 nM, 25 minutes at room temperature, read-out: KDM5B (IC50)

T1 sequence (Q9UGL1 whole entry): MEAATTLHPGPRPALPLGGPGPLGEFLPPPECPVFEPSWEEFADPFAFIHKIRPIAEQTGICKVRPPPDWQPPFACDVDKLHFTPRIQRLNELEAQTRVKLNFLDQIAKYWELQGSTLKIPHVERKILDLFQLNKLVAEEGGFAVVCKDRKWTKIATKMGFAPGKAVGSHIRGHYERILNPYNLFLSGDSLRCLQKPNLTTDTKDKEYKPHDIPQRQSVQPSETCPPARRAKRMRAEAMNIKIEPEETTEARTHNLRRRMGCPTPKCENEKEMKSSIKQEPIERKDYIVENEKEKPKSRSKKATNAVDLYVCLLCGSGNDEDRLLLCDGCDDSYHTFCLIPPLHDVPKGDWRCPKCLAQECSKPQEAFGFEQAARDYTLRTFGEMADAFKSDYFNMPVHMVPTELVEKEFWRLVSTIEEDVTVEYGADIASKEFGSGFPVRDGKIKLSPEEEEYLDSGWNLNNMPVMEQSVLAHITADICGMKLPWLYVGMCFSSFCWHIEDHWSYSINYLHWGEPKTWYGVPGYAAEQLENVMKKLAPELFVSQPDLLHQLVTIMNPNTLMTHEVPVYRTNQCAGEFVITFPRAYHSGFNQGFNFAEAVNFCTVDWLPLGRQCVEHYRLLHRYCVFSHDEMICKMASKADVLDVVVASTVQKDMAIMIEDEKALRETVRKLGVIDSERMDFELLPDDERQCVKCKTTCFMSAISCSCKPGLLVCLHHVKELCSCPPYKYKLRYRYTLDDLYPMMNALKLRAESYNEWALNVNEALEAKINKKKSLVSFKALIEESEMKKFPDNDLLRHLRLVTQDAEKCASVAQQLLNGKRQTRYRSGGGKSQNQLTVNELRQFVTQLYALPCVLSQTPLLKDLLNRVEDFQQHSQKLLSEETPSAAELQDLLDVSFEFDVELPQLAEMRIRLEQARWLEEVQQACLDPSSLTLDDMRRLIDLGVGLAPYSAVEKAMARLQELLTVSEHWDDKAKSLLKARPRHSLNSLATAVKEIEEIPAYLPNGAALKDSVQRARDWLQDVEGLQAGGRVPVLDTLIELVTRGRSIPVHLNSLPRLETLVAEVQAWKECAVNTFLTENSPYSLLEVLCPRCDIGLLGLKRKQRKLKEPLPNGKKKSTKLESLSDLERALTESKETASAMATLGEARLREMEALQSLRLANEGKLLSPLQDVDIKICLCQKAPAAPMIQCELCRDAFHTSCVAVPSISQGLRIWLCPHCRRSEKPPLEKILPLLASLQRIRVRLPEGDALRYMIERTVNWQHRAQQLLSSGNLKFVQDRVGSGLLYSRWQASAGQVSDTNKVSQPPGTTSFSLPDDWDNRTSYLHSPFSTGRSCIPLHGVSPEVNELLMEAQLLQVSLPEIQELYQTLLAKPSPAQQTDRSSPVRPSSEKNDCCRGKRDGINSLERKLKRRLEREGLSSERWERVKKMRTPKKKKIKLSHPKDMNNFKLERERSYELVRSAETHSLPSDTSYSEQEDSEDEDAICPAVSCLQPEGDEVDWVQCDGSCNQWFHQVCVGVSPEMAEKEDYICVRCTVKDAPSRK

Row | SMILES | IC50 (KDM5B; [1]) [µM] | IC50 (KDM4C) [µM] | IC50 (KDM5B) [µM]
1 | CC(C)c1c(O)nc(-n2ccnc2)nc1OCCN(C)C [Example 137, 6-[2-(Dimethylamino)-ethoxy]-2-(1H-imidazol-1-yl)-5-(propan-2-yl)pyrimidin-4-ol] | 0.058 | 0.975 | 
2 | CC(CN1CCOCC1)Oc1nc(-n2ccnc2)nc(O)c1C(C)C (stereo not shown) [Example 138, 2-(1H-Imidazol-1-yl)-6-{[1-(morpholin-4-yl)propan-2-yl]oxy}-5-(propan-2-yl)-pyrimidin-4-ol] |  | 5.56 | 0.065
3 | CC(C)c1c(O)nc(-n2ccnc2)nc1OCC1CCOCC1 [Example 139, 2-(1H-Imidazol-1-yl)-6-(oxan-4-ylmethoxy)-5-(propan-2-yl)pyrimidin-4-ol] | 0.075 | 3.68 | 
4 | CCCCCCOc1nc(-n2ccnc2)nc(O)c1C(C)C [Example 140, 6-(Hexyloxy)-2-(1H-imidazol-1-yl)-5-(propan-2-yl)pyrimidin-4-ol] | 0.341 | 50 | 
5 | CC(C)c1c(O)nc(-n2ccnc2)nc1OCC(=O)NCc1cccnc1 [Example 141, 2-{[6-Hydroxy-2-(1H-imidazol-1-yl)-5-(propan-2-yl)pyrimidin-4-yl]oxy}-N-(pyridin-3-ylmethyl)-acetamide] | 0.033 | 4.4 | 
6 | CC(C)c1c(O)nc(-n2ccnc2)nc1OCC(=O)N1CCOCC1 [Example 142, 2-{[6-Hydroxy-2-(1H-imidazol-1-yl)-5-(propan-2-yl)pyrimidin-4-yl]oxy}-1-(morpholin-4-yl)ethan-1-one] |  | 2.13 | 0.035
7 | CC(C)c1c(O)nc(-c2cncs2)nc1OCc1ccccn1 [Example 145, 5-(Propan-2-yl)-6-(pyridin-2-ylmethoxy)-2-(1,3-thiazol-5-yl)pyrimidin-4-ol] |  | 21 | 0.163
8 | CC(C)c1c(O)nc(-c2cncs2)nc1OCC(C)(C)CO [Example 147, 6-(3-Hydroxy-2,2-dimethylpropoxy)-5-(propan-2-yl)-2-(1,3-thiazol-5-yl)-pyrimidin-4-ol] |  | 12.4 | 1.47
9 | Cc1nc(-c2ccncc2)nc(O)c1C(C)C [Example 149, 6-Methyl-5-(propan-2-yl)-2-(pyridin-4-yl)pyrimidin-4-ol] |  | 50 | 3.32
10 | CC(C)c1c(O)nc(-c2cncs2)nc1-c1cnn(C(C)C)c1 [Example 152, 5-(Propan-2-yl)-6-[1-(propan-2-yl)-1H-pyrazol-4-yl]-2-(1,3-thiazol-5-yl)pyrimidin-4-ol] |  | 7.24 | 0.151
11 | CC(C)c1c(O)nc(-c2cncs2)nc1-c1cnn(C2CCNCC2)c1 [Example 154, 6-[1-(Piperidin-4-yl)-1H-pyrazol-4-yl]-5-(propan-2-yl)-2-(1,3-thiazol-5-yl)pyrimidin-4-ol] |  | 13.9 | 2.13
12 | Cc1nc(-c2cncs2)nc(O)c1C(C)C [Example 155, 6-Methyl-5-(propan-2-yl)-2-(1,3-thiazol-5-yl)-pyrimidin-4-ol] |  | 1.65 | 0.065
13 | CC(C)c1cnc(-c2cncs2)nc1O [Example 157, 5-(Propan-2-yl)-2-(1,3-thiazol-5-yl)-pyrimidin-4-ol] | 0.805 | 5.82 | 
14 | Cc1nc(-c2nccs2)nc(O)c1C(C)C [Example 158, 6-Methyl-5-(propan-2-yl)-2-(1,3-thiazol-2-yl)-pyrimidin-4-ol] | 2.41 | 30 | 

Results, then the compound that gave them:

Row | IC50 (KDM5B; [1]) [µM] | IC50 (KDM4C) [µM] | IC50 (KDM5B) [µM] | SMILES
15 |  | 2.96 | 0.138 | CC(C)c1c(O)nc(-c2cncs2)nc1OCc1cncnc1 [Example 143, 5-(Propan-2-yl)-6-(pyrimidin-5-ylmethoxy)-2-(1,3-thiazol-5-yl)pyrimidin-4-ol]
16 | 0.14 | 2.92 |  | CC(C)c1c(O)nc(-c2cncs2)nc1OCc1ccncc1 [Example 144, 5-(Propan-2-yl)-6-(pyridin-4-ylmethoxy)-2-(1,3-thiazol-5-yl)pyrimidin-4-ol]
17 |  | 9.46 | 0.48 | Cc1nc(-n2ccnc2C)nc(O)c1C(C)C [Example 148, 6-Methyl-2-(2-methyl-1H-imidazol-1-yl)-5-(propan-2-yl)pyrimidin-4-ol]
18 |  | 16.9 | 1.12 | Cc1nc(-c2scnc2C(=O)NCc2ccccc2)nc(O)c1C(C)C [Example 150, N-benzyl-5-[6-methyl-4-oxo-5-(propan-2-yl)-1,4-dihydropyrimidin-2-yl]-1,3-thiazole-4-carboxamide]
19 | 0.583 | 8.78 |  | Cc1cn(-c2nc(O)c(C(C)C)c(OCc3cccnc3)n2)cn1 [Example 151, 2-(4-Methyl-1H-imidazol-1-yl)-5-(propan-2-yl)-6-(pyridin-3-ylmethoxy)-pyrimidin-4-ol]
20 |  | 8.06 | 0.66 | CCc1c(C)nc(-c2cncs2)nc1O [Example 156, 5-Ethyl-6-methyl-2-(1,3-thiazol-5-yl)-pyrimidin-4-ol]
